The source of these data is US4241070A, “Analgesic benzomorphan derivatives” (priority 1975, dated 1980).

Counter-ions that a name gives are not always drawn. Like-named read-outs stand apart in the source and are kept apart here.

Data set [1] in a line: abstinence syndrome test (body weight after drug withdrawal). Conditions: for Abstinence syndrome: subcutaneous, twice a day, male rats, body weight decrease the day after withdrawal. The protocol: Groups of male rats of Wister strain (body weight, 150 g), each group
consisting of 20 male rats, were subcutaneously given the test compound
twice a day for 4 consecutive weeks. On the next day after drug
withdrawal, body weight was measured. The symbols have the following
meanings: +++, severe decrease (about 5% decrease); ++, moderate decrease
+, mild decrease; -, no decrease. A marked decrease is taken as an […]

The conditions of data set [2]: cited from earlier work.
For data set [3] the following is noted: cited from earlier work. This is another data set of the same source.
Data set [4] has as its system typical syndrome produced by intraperitoneal injection of 0.6% aqueous acetic acid. Put plainly: writhing test (acetic acid). It is filed as in vivo, mice. Conditions: for ED50: Mus musculus. How it is done: The test was based on the specific antagonism of the test compound to
typical syndrome produced by intraperitoneal injection of 0.6% aqueous
acetic acid. The syndrome was characterized by intermittent contractions
of the abdomen, twisting and turning of the trunk and extension of the
hind legs. A group of 5 mice was used for each dose level. The test
compound was administered 60 minutes before the injection of acetic acid
subcutaneously (sc) or orally (po).
pain response was recorded. The ED50 value was calculated according
to the LitchfieldWilcoxen's method.

Setting [5] is: sc, subcutaneous, 60 minutes before acetic acid, mice, Litchfield-Wilcoxen, read-out: ED50 SC.
[6] abbreviates: oral, 60 minutes before acetic acid, mice, Litchfield-Wilcoxen, read-out: ED50 PO.

As to `CC1C2Cc3ccc(O)cc3C1(C)CCN2C` (stereo not drawn) [2'-Hydroxy-2,5,9-trimethyl-6,7-benzomorphan], the Abstinence syndrome entry in data set [1] (20 mg/kg/day for 4 weeks) is reported as “++”. Also, in data set [2] (U.S. Pat. No. 3,138,603), the analgesia entry is “potent analgesia”. In addition, the addiction liability result in data set [3] (U.S. Pat. No. 3,138,603) was “has an addiction liability”.

The term ED50 denotes the dose at which the effect has come halfway, by size or by number of responders. Take `CC(C)=CCN1CCC2(C)c3cc(O)ccc3CC1C2C` (stereo not drawn) [2'-hydroxy-5,9-dimethyl-2-(3"-methyl-2"-butenyl)-6,7-benzomorphan]: the ED50 in data set [4] (setting [5]) came out at 17.6 mg/kg; in data set [4] (setting [6]) it was 98 mg/kg.

As for `CC1C2Cc3ccc(O)cc3C1(C)CCN2CCCC(=O)c1ccc(F)cc1` (stereo not drawn) [2-[γ-(p-fluorobenzoyl)-propyl]-2'-hydroxy-5,9-dimethyl-6,7-benzomorphan], the “effectiveness by route of administration” value in data set [2] (2-[γ-(p-fluorobenzoyl)-propyl]-2'-hydroxy-5,9-dimethyl-6,7-benzomorphan) is given as “effective when administered parenterally rather than orally”. The analgesic activity entry in data set [2] (U.S. Pat. No. 3,833,595) is given as “significant analgesic activity”. In data set [3] (U.S. Pat. No. 3,833,595), the drug addiction result was “without causing drug addiction”.

As to `Cc1ccc2c(c1)C1(C)CCN(CCCC(=O)c3ccc(F)cc3)C(C2)C1C` (stereo not drawn) [Example 1, 2-[γ-(p-Fluorobenzoyl)-propyl]-2',5,9-trimethyl-6,7-benzomorphan], the Abstinence syndrome result in data set [1] (40 mg/kg/day for 4 weeks) was “-”. Further, in data set [1] (as shown in Table 2), the addictive property entry is recorded as “did not exhibit any addictive property”. In addition, the median effective dose (ED50) in data set [4] (setting [5]) was found to be 7.9 mg/kg; in data set [4] (setting [6]), 9.6 mg/kg. For the same molecule, the “analgesic effectiveness compared with pentazocine” value in data set [4] (oral and subcutaneous administration) was “more effective than pentazocine”.

Consider `CN1CC[C@]23c4c5ccc(O)c4O[C@H]2[C@@H](O)C=C[C@H]3[C@H]1C5` [Morphine . hydrochloride, Morphine], for which the ED50 in data set [4] (po, read-out: ED50 PO) came to 7 mg/kg; in data set [4] (sc, read-out: ED50 SC), 1.6 mg/kg.
